What all share (assay): inhibition of tumour cell growth, NCI panel, 48 h
The subject of assay [1] is OVCAR-8.
Assay [2] concerns T47D.
Assay [3] relates to CCRF-CEM.
Assay [4] deals with SNB-75.
The test system of assay [5] is OVCAR-4.
The subject of assay [6] is IGROV-1.
Assay [7] concerns A498.
In assay [8] the test system is LOX IMVI.
Assay [9] concerns HCT-116.
Assay [10] deals with SK-MEL-5.
Assay [11] relates to NCI-H460.
The subject of assay [12] is BT-549.
Assay [13] has as its system M14.
The test system of assay [14] is SK-MEL-2.
For assay [15], the system named is MOLT-4.
The test system of assay [16] is SF-539.
The test system of assay [17] is U-251.
The subject of assay [18] is NCI-H226.
Assay [19] concerns CAKI-1.
Assay [20] relates to RXF 393.

This note sets out measurements from ChEMBL document CHEMBL1201862, “PubChem BioAssay data set” (2004).

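Test compounds were applied to cells in 96-well plates for 48 hours at 5 doses. GI50 = concentration required for 50% inhibition of growth.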 Active and inactive are the calls of the source. Cut-off read from the data, not from the text of the source: active = GI50 up to about 1.1 µM and inactive = higher.

Consider `COC(=O)c1ccc(NCC2=CC(=O)c3ccccc3C2=O)cc1`, for which the GI50 in assay [1] was 29.8 µM (inactive); in assay [2], 12.2 µM (inactive); in assay [3], 2.04 µM (inactive); in assay [4] it was 20.7 µM (inactive); in assay [5], 14.2 µM (inactive); in assay [6], 12.2 µM (inactive). Further, the GI50 is 24.2 µM (inactive) in assay [7]; 8.18 µM (inactive) in assay [8]; 17.8 µM (inactive) in [9]; 11.7 µM (inactive) in assay [10]; 18.2 µM (inactive) in assay [11]; 20 µM (inactive) in assay [12]. In addition, the GI50 in [13] is 17.8 µM (inactive); in assay [14], 18.9 µM (inactive); in assay [15], 3.01 µM (inactive); in [16], 23.4 µM (inactive); in assay [17] it was 22.9 µM (inactive); in assay [18] it was 16.4 µM (inactive). The GI50 in [19] is 11.6 µM (inactive); in assay [20] it was 22 µM (inactive).
Take `COC(=O)[C@H]1[C@@H](O)[C@@]2(O)c3c(OC)cc(OC)cc3O[C@@]2(c2ccc3c(c2)OCO3)[C@@H]1c1ccccc1`: the GI50 in assay [1] was 0.0253 µM (active); in assay [2] it was 0.00516 µM (active); in assay [3], 0.00607 µM (active); in assay [4], 0.0146 µM (active); in [5] it was 0.0149 µM (active); in [6], 0.00518 µM (active). In addition, the GI50 is 0.0144 µM (active) in assay [7]; 0.00525 µM (active) in [8]; < 0.005 µM (active) in assay [9]; 0.00757 µM (active) in [10]; < 0.005 µM (active) in assay [11]; 0.0219 µM (active) in [12]. Also, the GI50 is 0.00603 µM (active) in [13]; 0.0207 µM (active) in [14]; < 0.005 µM (active) in [15]; < 0.005 µM (active) in assay [16]; 0.00706 µM (active) in assay [17]; 0.0136 µM (active) in assay [18]. Besides, the figures for the GI50 in [19] and in [20] were 0.00893 µM (active) and 0.0647 µM (active), respectively.
Turning to `CO/N=C(\C(=O)Nc1cncs1)c1csc(NC(c2ccccc2)(c2ccccc2)c2ccccc2)n1`, the GI50 in [1] is > 10 µM (inactive); in assay [2] it was 6.52 µM (inactive); in assay [3] it was 3.81 µM (inactive); in [4], 9.95 µM (inactive); in assay [5] it was > 10 µM (inactive); in assay [6], > 10 µM (inactive). For the same molecule, the GI50 was > 10 µM (inactive) in assay [7]; 7.21 µM (inactive) in assay [8]; 5 µM (inactive) in assay [9]; > 10 µM (inactive) in assay [10]; 4.56 µM (inactive) in [11]; > 10 µM (inactive) in [12]. Besides, the GI50 was > 10 µM (inactive) in assay [13]; > 10 µM (inactive) in assay [14]; 3.31 µM (inactive) in assay [15]; 0.628 µM (active) in assay [16]; > 10 µM (inactive) in [17]; > 10 µM (inactive) in assay [18]. Also, the GI50 is > 10 µM (inactive) in assay [19] and 9.55 µM (inactive) in assay [20].
Regarding `CCC(NC1=NCCO1)c1cccs1` (stereo not given), the GI50 in assay [1] is 16.7 µM (inactive); in assay [2], 16.4 µM (inactive); in [3], 7.36 µM (inactive); in [4] it was 3.24 µM (inactive); in [5], 23.9 µM (inactive); in assay [6], 20.8 µM (inactive). The GI50 in [7] was 22.3 µM (inactive); in [8], 23.7 µM (inactive); in [9], 14.1 µM (inactive); in [10] it was 16.8 µM (inactive); in assay [11], 15.7 µM (inactive); in assay [12], 20.1 µM (inactive). Moreover, the GI50 in assay [13] was 19 µM (inactive); in [14], 15.5 µM (inactive); in assay [15], > 100 µM (inactive); in assay [16], 15.5 µM (inactive); in [17] it was 13.5 µM (inactive); in assay [18], 20.3 µM (inactive). Besides, the GI50 in [19] was 17.2 µM (inactive); in assay [20] it was 19 µM (inactive).
As to `NS(=O)(=O)c1ccc(NC(=O)N/N=C/c2ccccc2[N+](=O)[O-])cc1`, the GI50 in [1] is 37.7 µM (inactive); in [2], 57.4 µM (inactive); in assay [3], 25.9 µM (inactive); in [4] it was > 100 µM (inactive); in assay [5], 59.8 µM (inactive); in [6] it was 31.2 µM (inactive). For the same molecule, the GI50 in [7] was > 100 µM (inactive); in [8] it was 44.7 µM (inactive); in [9] it was 30.1 µM (inactive); in [10] it was 65.5 µM (inactive); in [11], > 100 µM (inactive); in assay [12], 45.4 µM (inactive). Further, the GI50 was 25.5 µM (inactive) in [13]; 58.7 µM (inactive) in assay [14]; 39.8 µM (inactive) in assay [15]; 38.5 µM (inactive) in [16]; 43.1 µM (inactive) in [17]; 42.9 µM (inactive) in [18]. For the same molecule, the GI50 in assay [19] is 44.8 µM (inactive); in assay [20], > 100 µM (inactive).
Regarding `COc1cc2c3cc1Oc1c(O)c(OC)cc4c1[C@H](Cc1ccc(cc1)Oc1cc(ccc1O)C[C@H]3N(C)CC2)N(C)CC4`, the GI50 in assay [1] was 14.9 µM (inactive); in [2], 17.9 µM (inactive); in assay [3] it was 10.4 µM (inactive); in assay [4] it was 18.8 µM (inactive); in assay [5], 16.9 µM (inactive); in assay [6], 13.8 µM (inactive). Further, the GI50 was 16.7 µM (inactive) in assay [7]; 4.94 µM (inactive) in [8]; 5.77 µM (inactive) in [9]; 7.33 µM (inactive) in [10]; 8.99 µM (inactive) in assay [11]; 12.9 µM (inactive) in assay [12]. For the same molecule, the GI50 in assay [13] is 2.25 µM (inactive); in assay [14], 12.3 µM (inactive); in assay [15], 8.41 µM (inactive); in assay [16] it was 3.23 µM (inactive); in [17], 9.48 µM (inactive); in [18], 29.4 µM (inactive). The GI50 in [19] was 25.9 µM (inactive); in assay [20], 3.63 µM (inactive).
As for `Cc1c(/C=N/NC(=S)Nc2ccccc2Cl)c(=O)n(-c2ccccc2)n1C`, the GI50 was 27.7 µM (inactive) in assay [1]; 13 µM (inactive) in [2]; 11 µM (inactive) in assay [3]; 25.9 µM (inactive) in [4]; 42.4 µM (inactive) in assay [5]; 40.3 µM (inactive) in assay [6]. The GI50 was 30.4 µM (inactive) in assay [7]; 55.3 µM (inactive) in assay [8]; 28.6 µM (inactive) in assay [9]; 32.7 µM (inactive) in assay [10]; 25.4 µM (inactive) in [11]; 54.2 µM (inactive) in assay [12]. For the same molecule, the GI50 in [13] was 60.3 µM (inactive); in assay [14] it was > 100 µM (inactive); in assay [15] it was 20.5 µM (inactive); in assay [16], 30.1 µM (inactive); in [17], 30.3 µM (inactive); in [18], 68.5 µM (inactive). Further, the GI50 in [19] is 19.7 µM (inactive); in assay [20] it was 16.1 µM (inactive).
For the molecule `COc1ccc2c(c1)/c(=C/C#N)c1c3ccccc3[n+](C)n21`, the GI50 in [1] was 11.4 µM (inactive); in [2], 2.51 µM (inactive); in [3] it was 2.04 µM (inactive); in assay [4], 3.7 µM (inactive); in [5], 4.37 µM (inactive); in assay [6] it was 7.62 µM (inactive). The GI50 is 1.7 µM (inactive) in assay [7]; 5.97 µM (inactive) in assay [8]; 3.13 µM (inactive) in [9]; 6.62 µM (inactive) in [10]; 7.23 µM (inactive) in assay [11]; 9.08 µM (inactive) in [12]. In addition, the GI50 is 6.87 µM (inactive) in assay [13]; 14.5 µM (inactive) in [14]; 3.3 µM (inactive) in assay [15]; 0.767 µM (active) in [16]; 2.75 µM (inactive) in assay [17]; 4.29 µM (inactive) in assay [18]. Further, the GI50 in assay [19] is 16.1 µM (inactive); in assay [20] it was 10.9 µM (inactive).
As for `COC(=O)c1sc2c(Cl)c(Cl)sc2c1Cl`, the GI50 in assay [1], in assay [2], in assay [3], in assay [4], in [5] and in [6] was > 100 µM (inactive) each time. Moreover, the GI50 in assay [7], in [8], in assay [9], in assay [10], in assay [11] and in assay [12] was > 100 µM (inactive) in each case. Moreover, the GI50 in assay [13] was > 100 µM (inactive); in assay [14] it was > 100 µM (inactive); in [15] it was > 100 µM (inactive); in assay [16] it was 66.7 µM (inactive); in assay [17], 97.5 µM (inactive); in assay [18], > 100 µM (inactive). For the same molecule, the GI50 in assay [19] and in assay [20] was > 100 µM (inactive) in each case.
In the case of `OCC(O)C(O)C(O)C1SC(c2ccccc2)=NN1c1ccccc1` (stereo not given), the GI50 in assay [1] is 54 µM (inactive); in assay [2] it was > 46.8 µM (inactive); in assay [3], > 81.5 µM (inactive); in assay [4] it was 16 µM (inactive); in assay [5], > 88.3 µM (inactive); in [6], > 96.2 µM (inactive). Besides, the GI50 in assay [7] was > 88.5 µM (inactive); in assay [8], 50.7 µM (inactive); in [9], 69.5 µM (inactive); in assay [10] it was > 78.5 µM (inactive); in [11] it was > 78 µM (inactive); in [12] it was > 100 µM (inactive). Also, the GI50 was 83 µM (inactive) in [13]; 41.7 µM (inactive) in assay [14]; > 81.3 µM (inactive) in assay [15]; 41.2 µM (inactive) in assay [16]; 51.4 µM (inactive) in assay [17]; > 76 µM (inactive) in [18]. The GI50 is > 100 µM (inactive) in [19] and 20.4 µM (inactive) in assay [20].
